Read-outs that look alike come from different tables or passages of the source.
Key:
[1] = biological target: T1, G12D-mutant human KRAS (amino acid residues 1-188) (Homo sapiens, UniProt P01116, G12D); experiment: KRAS Binding Disruption Assay (AlphaScreen; biotinylated KRpep-2d analogue or RAF1-RBD), G12D; settings: for IC50: geometric mean, read-out: KRAS GMean IC50 (uM) MUTATION: G12D
T1 construct: G12D or G12C-mutant human KRAS (amino acid residues 1-188) with FLAG tag; made in house; host or cells: E. coli
Outline: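 AlphaScreen readout: signal falls as compound displaces biotinylated KRpep-2d analogue or RAF1-RBD from mutant KRAS. Both partners at 5-20 nM, 1 h binding at 25° C, then 10 μg/mL Anti-Flag acceptor and streptavidin donor beads for 1 h. IC50 by nonlinear regression of % inhibition.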

[2] = biological target: T2, G12C-mutant human KRAS (amino acid residues 1-188) (Homo sapiens, UniProt P01116, G12C); experiment: KRAS Binding Disruption Assay (AlphaScreen; biotinylated KRpep-2d analogue or RAF1-RBD), G12C; settings: geometric mean, read-out: KRAS GMean IC50 (uM) MUTATION: G12C
T2 construct: G12D or G12C-mutant human KRAS (amino acid residues 1-188) with FLAG tag; made in house; host or cells: E. coli
Experimental: Compound binding disrupts the interaction of KRpep-2d or RAF1-RBD with KRAS, leading to a decrease in Alpha signal.
All assay components were prepared in 20 mM HEPES (pH 7.5), 100 mM NaCl, 5 mM MgCl2, 0.01% Tween-20, and 0.01% BSA. Biotinylated analogues of KRpep-2d were custom synthesized. The binding disruption assays were performed using 5-20 nM of mutant KRAS and 5-20 nM of either biotinylated KRpep-2d analogue or RAF1-RBD. 19 μL of KRAS protein and 4 μL of biotinylated KRpep-2d or RAF1-RBD were added to the wells of a 384-well plate containing 1 μL of various concentrations of test compound or DMSO vehicle. 16 wells containing KRAS, biotinylated KRpep-2d or RAF1-RBD, and 5% DMSO served as high controls. 16 wells containing KRAS only and 5% DMSO served as low controls. Binding reactions were incubated for 1 hour at 25° C., then Anti-Flag Acceptor and Streptavidin Donor Alpha beads were added at a final concentration of 10 μg/mL for an additional hour at room temperature. Alpha signal was read out on a Perkin Elmer Envision HTS instrument. The percentage inhibition at individual compound concentrations relative to high and low controls was calculated. The data were analyzed by using nonlinear regression to generate IC50 values.

[3] = biological target: T3, G12V-mutant human KRAS (amino acid residues 1-188) (Homo sapiens, UniProt P01116, G12V); experiment: KRAS Binding Competition Assay (AlphaScreen; biotinylated KRpep-2d analogue), G12V; settings: geometric mean, read-out: KRAS GMean IC50 (uM) MUTATION: G12V
T3 construct: G12V-mutant human KRAS (amino acid residues 1-188) with FLAG tag was purified from E. coli; made in house; host or cells: E. coli

| SMILES | IC50 ([1]; KRAS G12D) | IC50 [2] | Improved KRAS G12D Biochemical Potency of Compounds with Bridged vs Non-Bridged R^1 Groups ([1]; Table 4, fold more potent than the compared compound of WO 2017/172979) | IC50 ([1]; Table 4, comparison with compounds of WO 2017/172979) | IC50 [3] |
| --- | --- | --- | --- | --- | --- |
| CC(=O)NCCCN1CCCC1COc1nc(N2C[C@H]3CC[C@@H](C2)N3)c2ccc(-c3cc(O)cc4ccccc34)c(F)c2n1 (mixture of isomers) [P-0674, N-(3-((RS)-2-(((4-((1R,5S)-3,8-diazabicyclo[3.2.1]octan-3-yl)-8-fluoro-7-(3-hydroxynaphthalen-1-yl)quinazolin-2-yl)oxy)methyl)pyrrolidin-1-yl)propyl)acetamide] | 0.0001 to 10 µM | 0.0001 to 10 µM | – | – | – |
| Cc1cc(CN2[C@@H]3CC[C@H]2CN(c2nc(OCC45CCCN4CCC5)nc4cc(-c5cc(O)cc6ccccc56)ccc24)C3)no1 [P-0006, 4-(4-((1R,5S)-8-((5-methylisoxazol-3-yl)methyl)-3,8-diazabicyclo[3.2.1]octan-3-yl)-2-((tetrahydro-1H-pyrrolizin-7a(5H)-yl)methoxy)quinazolin-7-yl)naphthalen-2-ol] | 0.0001 to 10 µM | 10 to 100 µM | – | – | – |
| CCc1cc2c(N3C[C@H]4CC[C@@H](C3)N4)nc(OC[C@@H]3CCCN3C)nc2c(F)c1-c1cc(O)cc2ccccc12 [P-0013, 4-(4-((1R,5S)-3,8-diazabicyclo[3.2.1]octan-3-yl)-6-ethyl-8-fluoro-2-(((S)-1-methylpyrrolidin-2-yl)methoxy)quinazolin-7-yl)naphthalen-2-ol] | 0.0001 to 10 µM | 0.0001 to 10 µM | – | – | – |
| CN(C)CCNc1nc(N2C[C@H]3CC[C@@H](C2)N3)c2ccc(-c3cc(O)cc4ccccc34)cc2n1 [P-0022, 4-(4-((1R,5S)-3,8-diazabicyclo[3.2.1]octan-3-yl)-2-((2-(dimethylamino)ethyl)amino)quinaz-olin-7-yl)naphthalen-2-ol] | 0.0001 to 10 µM | 10 to 100 µM | – | – | – |
| CN(C)CCOc1nc(N2C[C@H]3CC[C@@H](C2)N3)c2ccc(-c3cc(O)cc4ccccc34)cc2n1 [P-0023, 4-(4-((1R,5S)-3,8-diazabicyclo[3.2.1]octan-3-yl)-2-(2-(dimethylamino)ethoxy)quinazolin-7-yl)naphthalen-2-ol] | 0.0001 to 10 µM | 10 to 100 µM | P-0023 is about 57 times more potent than Compound 149 in WO 2017/172979. | 0.29 µM | – |
| C=Cc1cc2c(N3C[C@H]4CC[C@@H](C3)N4)nc(OC[C@@H]3CCCN3C)nc2c(F)c1-c1cc(O)cc2ccccc12 [P-0036, 4-[4-(3,8-Diazabicyclo[3.2.1]octan-3-yl)-8-fluoro-2-[[(2S)-1-methylpyrrolidin-2-yl]methoxy]-6-vinyl-quinazolin-7-yl]naphthalen-2-ol] | 0.0001 to 10 µM | 0.0001 to 10 µM | – | – | – |
| CN1CCC[C@H]1COc1nc(N2CC3CCCC(C2)N3)c2cc(Cl)c(-c3cc(O)cc4ccccc34)c(F)c2n1 [P-0039, 4-(4-(3,9-diazabicyclo[3.3.1]nonan-3-yl)-6-chloro-8-fluoro-2-(((S)-1-methylpyrrolidin-2-yl)methoxy)quinazolin-7-yl)naphthalen-2-ol] | 0.0001 to 10 µM | 0.0001 to 10 µM | – | – | – |
| CN(C)C(=O)CCNc1nc(N2C[C@H]3CC[C@@H](C2)N3)c2ccc(-c3cc(O)cc4ccccc34)cc2n1 [P-0058, 3-((4-((1R,5S)-3,8-diazabicyclo[3.2.1]octan-3-yl)-7-(3-hydroxynaphthalen-1-yl)quinazolin-2-yl)amino)-N,N-dimethylpropanamide] | 10 to 100 µM | 10 to 100 µM | – | – | – |
| CN(C)C(=O)CNc1nc(N2C[C@H]3CC[C@@H](C2)N3)c2ccc(-c3cc(O)cc4ccccc34)cc2n1 [P-0059, 2-((4-((1R,5S)-3,8-diazabicyclo[3.2.1]octan-3-yl)-7-(3-hydroxynaphthalen-1-yl)quinazolin-2-yl)amino)-N,N-dimethylacetamide] | 10 to 100 µM | 10 to 100 µM | – | – | – |
| CNCCNc1nc(N2C[C@H]3CC[C@@H](C2)N3)c2ccc(-c3cc(O)cc4ccccc34)cc2n1 [P-0061, 4-(4-((1R,5S)-3,8-diazabicyclo[3.2.1]octan-3-yl)-2-((2-(methylamino)ethyl)amino)quinazo-lin-7-yl)naphthalen-2-ol] | 0.0001 to 10 µM | 100 to 1000 µM | – | – | – |
| CC(CN)Oc1nc(N2C[C@H]3CC[C@@H](C2)N3)c2ccc(-c3cc(O)cc4ccccc34)cc2n1 (stereo partly drawn) [P-0062, 4-(2-((1-aminopropan-2-yl)oxy)-4-((1R,5S)-3,8-diazabicyclo[3.2.1]octan-3-yl)quinazolin-7-yl)naphthalen-2-ol] | 0.0001 to 10 µM | 10 to 100 µM | – | – | – |
| CNC(=O)CN1[C@@H]2CC[C@H]1CN(c1nc(OCC34CCCN3CCC4)nc3c(F)c(-c4cc(O)cc5ccccc45)ccc13)C2 [P-0627, 2-((1R,5S)-3-(8-fluoro-7-(3-hydroxynaphthalen-1-yl)-2-((tetrahydro-1H-pyrrolizin-7a(5H)-yl)methoxy)quinazolin-4-yl)-3,8-diazabicyclo[3.2.1]octan-8-yl)-N-methylacetamide] | 0.0001 to 10 µM | – | – | – | 0.0001 to 10 µM |
| OCCCN1[C@@H]2CC[C@H]1CN(c1nc(OCC34CCCN3CCC4)nc3c(F)c(-c4cc(O)cc5ccccc45)ccc13)C2 [P-0628, 4-(8-fluoro-4-((1R,5S)-8-(3-hydroxypropyl)-3,8-diazabicyclo[3.2.1]octan-3-yl)-2-((tetrahydro-1H-pyrrolizin-7a(5H)-yl)methoxy)quinazolin-7-yl)naphthalen-2-ol] | 0.0001 to 10 µM | – | – | – | 0.0001 to 10 µM |
| OCC1CN(c2nc(N3C[C@H]4CC[C@@H](C3)N4)c3ccc(-c4cc(O)cc5ccccc45)c(F)c3n2)CC1O (stereo partly drawn) [P-0629, 1-(4-((1R,5S)-3,8-diazabicyclo[3.2.1]octan-3-yl)-8-fluoro-7-(3-hydroxynaphthalen-1-yl)quinazolin-2-yl)-4-(hydroxymethyl)pyrrolidin-3-ol] | 0.0001 to 10 µM | – | – | – | 10 to 100 µM |
| CN(C)C(C)(C)CNc1nc(N2C[C@H]3CC[C@@H](C2)N3)c2ccc(-c3cc(O)cc4ccccc34)c(F)c2n1 [P-0630, 4-(4-((1R,5S)-3,8-diazabicyclo[3.2.1]octan-3-yl)-2-((2-(dimethylamino)-2-methylpropyl)amino)-8-fluoroquinazolin-7-yl)naphthalen-2-ol] | 0.0001 to 10 µM | – | – | – | 10 to 100 µM |
| Oc1cc(-c2ccc3c(N4C[C@H]5CC[C@@H](C4)N5)nc(NCC45CCCN4CCC5)nc3c2F)c2ccccc2c1 [P-0631, 4-(4-((1R,5S)-3,8-diazabicyclo[3.2.1]octan-3-yl)-8-fluoro-2-(((tetrahydro-1H-pyrrolizin-7a(5H)-yl)methyl)amino)quinazolin-7-yl)naphthalen-2-ol] | 0.0001 to 10 µM | – | – | – | 10 to 100 µM |
| Oc1cc(-c2ccc3c(N4C[C@H]5CC[C@@H](C4)N5)nc(N4CC(N5CC(O)C5)C4)nc3c2F)c2ccccc2c1 [P-0632, 1′-(4-((1R,5S)-3,8-diazabicyclo[3.2.1]octan-3-yl)-8-fluoro-7-(3-hydroxynaphthalen-1-yl)quinazolin-2-yl)-[1,3′-biazetidin]-3-ol] | 0.0001 to 10 µM | – | – | – | 0.0001 to 10 µM |
| Oc1cc(-c2ccc3c(N4C[C@H]5CC[C@@H](C4)N5)nc(N4CC(O)C4)nc3c2F)c2ccccc2c1 [P-0633, 1-(4-((1R,5S)-3,8-diazabicyclo[3.2.1]octan-3-yl)-8-fluoro-7-(3-hydroxynaphthalen-1-yl)quinazolin-2-yl)azetidin-3-ol] | 0.0001 to 10 µM | – | – | – | 100 to 1000 µM |
| OCC1CCN(c2nc(N3C[C@H]4CC[C@@H](C3)N4)c3ccc(-c4cc(O)cc5ccccc45)c(F)c3n2)C1 (stereo partly drawn) [P-0634, 4-(4-((1R,5S)-3,8-diazabicyclo[3.2.1]octan-3-yl)-8-fluoro-2-(3-(hydroxymethyl)pyrrolidin-1-yl)quinazolin-7-yl)naphthalen-2-ol] | 0.0001 to 10 µM | – | – | – | 100 to 1000 µM |
| CN(C)C1(C)CN(c2nc(N3C[C@H]4CC[C@@H](C3)N4)c3ccc(-c4cc(O)cc5ccccc45)c(F)c3n2)C1 [P-0635, 4-(4-((1R,5S)-3,8-diazabicyclo[3.2.1]octan-3-yl)-2-(3-(dimethylamino)-3-methylazetidin-1-yl)-8-fluoroquinazolin-7-yl)naphthalen-2-ol] | 0.0001 to 10 µM | – | – | – | 10 to 100 µM |
| Cc1cccc2cccc(-c3ccc4c(N5C[C@H]6CC[C@@H](C5)N6C(=O)CC#N)nc(OCC56CCCN5CCC6)nc4c3F)c12 [P-0813, 3-((1R,5S)-3-(8-fluoro-7-(8-methylnaphthalen-1-yl)-2-((tetrahydro-1H-pyrrolizin-7a(5H)-yl)methoxy)quinazolin-4-yl)-3,8-diazabicyclo[3.2.1]octan-8-yl)-3-oxopropanenitrile] | – | 0.0001 to 10 µM | – | – | – |

Reference: patent US20230081426A1, “COMPOUNDS AND METHODS FOR KRAS MODULATION AND INDICATIONS THEREFOR” (Plexxikon Inc., priority 2020, published 2023)
